Entries after “also recorded” stand apart in the source; their conditions may differ.
What was measured:
Format in all cases: in vivo, soybean
[1] = system: Williams-NMU-1 M2 seedlings; assay: Hydroponic selection of M2 seeds with Compound 1; conditions: 100 ppb
Method: Four Modified Hydropot Solo units were prepared as described in the Detailed Description by filling the planting tanks with a 5 cm layer of pea gravel followed by a 10 cm layer of fine vermiculite. M2 seeds of the William-NMU-1 were densely planted (approx. 16,600 seeds per square meter) by placing the seeds in a single horizontal layer on top of the vermiculite and then covering the seeds with a second level 2.5 cm layer of vermiculite. The nutrient solution reservoir was filled with tap water supplemented with 100 ppb of Compound 1 as the selective agent. Plant tanks were irrigated with the Compound 1 solution for four 30 minute periods per day beginning at 12 midnight, 8 AM, 12 noon, and 4 pm. […] The W20 plant was gently removed from the from the hydroponic planting tank and transplanted into a 20 cm pot containing a standard peat-based potting mixture. […] This observation led the applicant to believe that W20 represented a new class of resistant mutants. W20 was allowed to reach maturity under greenhouse conditions and produce an M3 line that was also referred to as W20.
M2 seeds of the Williams-NMU-1 treatment (Table II) were densely planted (approximately 16,600 seeds Per m2) on top of a level 7 cm layer of granular vermiculite supported by the upper chamber of the planting tank of the previously described large hydroponic selection system. […]

Mutant W4-4 = assay: Postemergence herbicide spray test of W4-4 (Table VII-A); conditions: two weeks after treatment
Method: (§1) To investigate this hypothesis, a postemergence herbicide spray test was conducted to compare the reaction of W4-4 to both W20 and wild-type Williams. The applicant was particularly interested in the resistance of W4-4 to herbicide treatments that were injurious to both Williams and W20 in a previous test (Table VII). […] Twenty-four plants each of W4-4, W20, and Williams were planted in separate 10 cm pots and allowed to grow to the second trifoliolate stage. Each pot constituted a single experimental unit receiving a single herbicide treatment. Herbicide treatments (Table VIIA) were applied as described for the first postemergence test and were replicated twice. Control plants were sprayed with the spray carrier solution only (water with 0.25% X77 surfactant). At two weeks after treatment, each plant was rated for % herbicide injury as described in Table VIII. Analysis of variance on injury ratings was performed separately for each herbicide to calculate treatment means and standard errors. Fisher's least significant difference (LSD) was used to determine the significance of line means differences at each herbicide rate using the 95% level of confidence. […]

mutant W20 = assay: as above; conditions: two weeks after treatment
Method: as §1

Williams 82 = assay: as above; conditions: two weeks after treatment
Method: as §1

W20 = assay: Seed soak test with Compound 8; conditions: W20, seeds soaked 16 hours in 2 ppm solution
Method: The second screening protocol was carried out as follows: samples of seed from W20 were tested for preemergence tolerance to Compound 8 by soaking seeds in a 2.0 ppm buffered solution of Compound 8 for 16 hours, rinsing, and planting in flats in a greenhouse.
The original W4-4 M2 plant was allowed to self pollinate, mature, and produced a family of M3 seeds. An M3 progeny test was then conducted to determine if the new resistance phenotype was heritable and if the M3 family was true-breeding or segregating for the new resistance trait. The M3 progeny of W4-4 were screened for resistance with the same seed soak technique used to select the original W4-4 M2 plant. Twenty seeds each of the W4-4 M3 family, W20 line, and Williams line were soaked for 16 hours in a solution of 2 ppm of Compound 8. Twenty additional seeds of Williams were soaked for 16 hours in plain tap water as a control treatment. Treated seeds were then washed for two minutes in running water. Each seed was then planted in a separate pot for ease of observation.

COc1nc(C)nc(NC(=O)NS(=O)(=O)c2ccccc2Cl)n1 [Compound 1, 2-chloro-N-[[(4-methoxy-6-methyl-1,3,5-triazin-2-yl)amino]carbonyl]benzenesulfonamide]
effect on surrounding seedlings ([1]; Modified Hydropot Solo units, twelve days after planting): lethal to the surrounding seedlings | effect on background of wild type seedlings ([1]; large hydroponic unit, 8 days after planting): uniformly inhibited

COC(=O)c1cccnc1S(=O)(=O)NC(=O)Nc1nc(OC)cc(OC)n1 [Compound 8, Methyl 2-[[[[(4,6-dimethoxy-2-pyrimidinyl)amino]carbonyl]amino]sulfonyl]-3-pyridinecarboxylate]
mean % injury (Mutant W4-4; W4-4, 4 g/ha postemergence): 48% | mean % injury (Mutant W4-4; W4-4, 16 g/ha postemergence): 48% | mean % injury (Mutant W4-4; W4-4, 32 g/ha postemergence): 65% | mean % injury (mutant W20; W20, 4 g/ha postemergence): 90% | mean % injury (mutant W20; W20, 16 g/ha postemergence): 93% | mean % injury (mutant W20; W20, 32 g/ha postemergence): 95% | mean % injury (Williams 82; WM82, 4 g/ha postemergence): 90% | mean % injury (Williams 82; WM82, 16 g/ha postemergence): 95% | mean % injury (Williams 82; WM82, 32 g/ha postemergence): 95% | seedling development after seed soak (W20): uniformly inhibit growth of W20 beyond the stage of emergence and cotyledon expansion; also recorded: had not started to form true leaves
